Key:
[1] = target: T1, human H3 receptor (Homo sapiens, UniProt Q9Y5N1); test: H3 receptor binding test; details: membrane preparation of human H3 receptor-expressing CHO-K1 cells; 2 nM R(−)-α-methyl[3H]histamine; room temperature, 1 hour
T1 construct: purchased Euroscreen ES-392-M; host or cells: CHO-K1 cells (recombinant expression)
Procedure: A membrane preparation of human H3 receptor-expressing CHO—K1 cells (Euroscreen, ES-392-M, 15 μg protein/200 μl), R(−)-α-methyl[^3H]histamine (Amersham, TRK-1017, specific activity: 1.74 TBq/mmol, 2 nM) and a test drug were reacted at room temperature for 1 hour. After completion of the reaction, the reaction mixture was subjected to suction filtration through a 0.3% polyethyleneimine-treated glass filter (GF/C). The glass filter was washed five times with 50 mM Tris-HCl washing solution (pH 7.4) containing 0.1% BSA and 5 mM magnesium chloride. After washing, the glass filter was dried and a scintillator was added thereto, followed by measurement of radioactivity on the filter using a liquid scintillation counter.
Binding of R(−)-α-methyl[^3H]histamine in the presence of 10 μM R(−)-α-methylhistamine was defined as non-specific binding, and the difference between total binding and non-specific binding of R(−)-α-methyl[^3H]histamine was defined as specific binding of R(−)-α-methyl[^3H]histamine. A fixed concentration (2 nM) of R(−)-α-methyl[^3H]histamine was reacted under the above conditions with each test drug at various concentrations to obtain an inhibition curve. The inhibition curve was used to determine the concentration (IC50) of each test drug required for 50% inhibition of R(−)-α-methyl[^3H]histamine binding.

[2] = target: T1, human H3 receptor; test: [35S]GTP-γ-S binding test; assay type: biochemical; details: human H3 receptor membrane preparation; 100 μM R(−)-α-methylhistamine; 0.2 nM [35S]GTP-γ-S; 30 μM GDP
Procedure: A human H3 receptor membrane preparation (7.5 μg protein/100 μl), 30 μM GDP, 100 μM R(−)-α-methylhistamine and a test compound were reacted at room temperature for 30 minutes. After completion of the reaction, [^35S]GTP-γ-S (0.2 nM) was added and reacted for an additional 30 minutes. After completion of the reaction, the reaction mixture was subjected to suction filtration through a glass filter (GF/C). The glass filter was washed three times with 20 mM HEPES washing solution (pH 7.4) containing 100 mM sodium chloride and 1 mM magnesium chloride. After washing, the glass filter was dried and a scintillator was added thereto, followed by measurement of radioactivity on the filter using a liquid scintillation counter.
Binding of [^35S]GTP-γ-S in the absence of R(−)-α-methylhistamine was defined as non-specific binding, and the difference between total binding in the presence of R(−)-α-methylhistamine and non-specific binding was defined as specific binding of [^35S]GTP-γ-S. Fixed concentrations of [^35S]GTP-γ-S (0.2 nM) and R(−)-α-methylhistamine (100 μM) were reacted under the above conditions with each test drug at various concentrations to obtain an inhibition curve. The inhibition curve was used to determine the concentration (IC50) of each test drug required for 50% inhibition of [^35S]GTP-γ-S binding.

[3] = test system: male SD rats; test: Social recognition test; assay type: in vivo, rat; details: compared to the vehicle group
Procedure: In this test, male SD rats were used. Adult rats were placed in a Perspex test box and acclimated for 30 minutes. Then, young rats were placed in the same test box, and the time taken for the adult rats to show exploratory behavior to the young rats during 5 minutes was measured (first exploratory behavior time). The exploratory behavior measured included sniffing, grooming, and closely following. After a 5 minute exploration, the adult and young rats were removed from the test box and returned to their respective home cages. After 90 minutes, the adult rats were placed again in the same test box as used in the first exploratory behavior test and acclimated for 30 minutes. Then, the same young rats as used in the first test were placed in the test box, and the time taken for the adult rats to show exploratory behavior to the young rats during 5 minutes was measured (second exploratory behavior time). The ratio of the second exploratory behavior time to the first exploratory behavior time (second/first exploratory behavior time ratio) was taken as an indicator of social recognition. The compound of the present invention was orally administered to the adult rats immediately after their first exploratory behavior. The compound of the present invention was dissolved in 0.03 N hydrochloric acid and tested at 0.1, 0.3 and 1 mg/kg.

T1 sequence (Q9Y5N1 whole entry): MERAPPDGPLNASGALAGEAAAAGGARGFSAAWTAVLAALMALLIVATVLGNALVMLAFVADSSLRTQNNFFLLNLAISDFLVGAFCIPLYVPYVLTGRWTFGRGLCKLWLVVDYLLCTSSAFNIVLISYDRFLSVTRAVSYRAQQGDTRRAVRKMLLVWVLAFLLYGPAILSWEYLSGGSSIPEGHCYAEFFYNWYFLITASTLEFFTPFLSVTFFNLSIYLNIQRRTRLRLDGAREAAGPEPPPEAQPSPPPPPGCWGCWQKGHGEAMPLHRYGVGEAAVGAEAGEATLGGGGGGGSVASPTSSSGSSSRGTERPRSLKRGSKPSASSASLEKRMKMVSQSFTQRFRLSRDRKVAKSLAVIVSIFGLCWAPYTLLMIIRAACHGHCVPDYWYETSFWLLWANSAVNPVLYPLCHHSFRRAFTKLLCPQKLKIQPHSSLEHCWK

With `O=C(c1cnn(-c2ccc(OC3CCN(C4CCCC4)CC3)cc2)c1)N1CCCC1` [Compound No. 1, 1-cyclopentyl-4-{4-[4-(pyrrolidin-1-ylcarbonyl)-1H-pyrazol-1-yl]phenoxy}piperidine] the IC50 [1] was 10.4 nM, the IC50 [2] was 2.6 nM and the “second/first exploratory behavior time ratio” value ([3]; 0.3 mg/kg orally to adult male SD rats immediately after first exploratory behavior) was “significantly reduced”. For the same compound, the “second/first exploratory behavior time ratio” value ([3]; 1 mg/kg orally to adult male SD rats immediately after first exploratory behavior) was “significantly reduced”.

`CC1CCCC1N1CCC(Oc2ccc(-n3cc(C(=O)N4CCCC4)cn3)cc2)CC1` (stereo not shown) [Compound No. 5, 1-(2-methylcyclopentyl)-4-{4-[4-(pyrrolidin-1-ylcarbonyl)-1H-pyrazol-1-yl]phenoxy}piperidine] was tested, and the IC50 [1] was 8.1 nM.

With `O=C(c1cnn(-c2ccc(OC3CCN(C4CCC4)CC3)cc2)c1)N1CCCC1` [Compound No. 14, 1-cyclobutyl-4-{4-[4-(pyrrolidin-1-ylcarbonyl)-1-pyrazol-1-yl]phenoxy}piperidine] the IC50 [1] was 7.1 nM and the IC50 [2] was 1.6 nM.

Work on `O=C(c1ccn(-c2ccc(OC3CCN(C4CCC4)CC3)cc2)n1)N1CCCC1` [Compound No. 68, {1-[4-(1-cyclobutylpiperidin-4-yloxy)phenyl]-1H-pyrazol-3-yl}pyrrolidin-1-yl-methanone] yielded an IC50 [1] of 7.1 nM and an IC50 [2] of 1.2 nM.

`O=C(NC1CCCC1)c1cnn(-c2ccc(OC3CCN(C4CCC4)CC3)cc2)c1` [compound 16, 1-{4-[(1-cyclobutylpiperidin-4-yl)oxy]phenyl}-N-cyclopentyl-1H-pyrazole-4-carboxamide] was tested, and the IC50 [1] was 5.7 nM and the IC50 [2] was 1.1 nM.

For `O=C(NCC(F)(F)F)c1cnn(-c2ccc(OC3CCN(C4CCC4)CC3)cc2)c1` [compound 18, 1-{4-[(1-cyclobutylpiperidin-4-yl)oxy]phenyl}-N-(2,2,2-trifluoroethyl)-1H-pyrazole-4-carboxamide], the IC50 [1] was 14.7 nM.

Work on `O=C(NCC1CCCCC1)c1cnn(-c2ccc(OC3CCN(C4CCC4)CC3)cc2)c1` [compound 19, 1-{4-[(1-cyclobutylpiperidin-4-yl)oxy]phenyl}-N-(cyclohexylmethyl)-1H-pyrazole-4-carboxamide] yielded an IC50 [1] of 6.2 nM.
